# Patent US20220128542A1, “TREATMENT EFFICIENCY EVALUATION” (TX MEDIC AB, priority 2019, published 2022)
# Marks after values point to notes of the source that are not given here.
# Test system: brain of rats subjected to severe traumatic brain injury (sTBI)
# Assay: HPLC of purine-pyrimidine metabolites (energy state, oxidative/nitrosative stress) in brain after sTBI (Example 1)
# Assay type: in vivo, rat
# Procedure: They were divided into three groups:
# 1) n=6 animals subjected to sTBI, with drug administration after 30 minutes and sacrifice at 2 days post-TBI (Acute phase 1)
# 2) n=6 animals subjected to sTBI, with drug administration after 30 minutes and sacrifice at 7 days post-TBI (Acute phase 2).
# 3) n=6 animals subjected to sTBI, with drug administration after 3 days and sacrifice at 7 days post-TBI (Chronic phase).
# The drug treatment was a subcutaneous injection of 0.5 ml of LMW-DS (15 mg/kg) and administered according to the aforementioned schematic protocol.
# After the wet weight (w.w.) determination, tissue preparation was affected as previously disclosed (Tavazzi et al., Neurosurgery. 2005; 56: 582-589; Vagnozzi et al., Neurosurgery. 2007; 61: 379-388; Tavazzi et al., Neurosurgery. 2007; 61: 390-395; Amorini et al., J Cell Mol Med. 2017; 21: 530-542.). Briefly, whole brain homogenization was performed with 7 ml of ice-cold, nitrogen-saturated, precipitating solution composed by CH3CN+10 mM KH2PO4, pH 7.40, (3:1; v:v), and using an Ultra-Turrax set at 24,000 rpm/min (Janke & Kunkel, Staufen, Germany). After centrifugation at 20,690×g, for 10 min at 4° C., the clear supernatants were saved, pellets were supplemented with 3 ml of the precipitating solution and homogenized again as described above. A second centrifugation was performed (20,690×g, for 10 min at 4° C.), pellets were saved, supernatants combined with those previously obtained, extracted by vigorous agitation with a double volume of HPLC-grade CHCl3 and centrifuged as above. The upper aqueous phases containing water-soluble low-molecular weight compounds were collected, subjected to chloroform washings for two more times (this procedure allowed the removal of all the organic solvent and of any lipid soluble compound from the buffered tissue extracts), adjusted in volumes with 10 mM KH2PO4, pH 7.40, to have ultimately aqueous 10% tissue homogenates and saved at −80° C. until assayed.
# Aliquots of each deproteinized tissue samples were filtered through a 0.45 μm HV Millipore filter and loaded (200 μl) onto a Hypersil C-18, 250×4.6 mm, 5 μm particle size column, provided with its own guard column (Thermo Fisher Scientific, Rodano, Milan, Italy) and connected to an HPLC apparatus consisting of a Surveyor System (Thermo Fisher Scientific, Rodano, Milan, Italy) with a highly sensitive diode array detector (equipped with a 5 cm light path flow cell) and set up between 200 and 300 nm wavelength. Data acquisition and analysis were performed by a PC using the ChromQuest® software package provided by the HPLC manufacturer.
# Metabolites belonging to the purine-pyrimidine profiles (listed below) and related to tissue energy state, mitochondrial function and relative to oxidative-nitrosative stresses were separated, in a single chromatographic run, according to slight modifications of existing ion-pairing HPLC methods (Lazzarino et al., Anal Biochem. 2003; 322: 51-59; Tavazzi et al., Clin Biochem. 2005; 38: 997-1008). Assignment and calculation of the compounds of interest in chromatographic runs of tissue extracts were carried out at the proper wavelengths (206, 234 and 260 nm) by comparing retention times, absorption spectra and areas of peaks with those of peaks of chromatographic runs of freshly-prepared ultra-pure standard mixtures with known concentrations. […]
# [1] = Acute phase 1: 15 mg/kg s.c. 30 min post-sTBI, sacrifice day 2
# [2] = Acute phase 2: 15 mg/kg s.c. 30 min post-sTBI, sacrifice day 7
substance,measurement,setting,value
sodium salt of dextran sulfate [LMW-DS],MDA levels,15 mg/kg s.c. after sTBI,significant reduction
same,ascorbic acid and GSH levels,15 mg/kg s.c. after sTBI,significant improvement
same,levels of NAA and its substrates,15 mg/kg s.c. after sTBI,significant improvements
same,nitrate concentrations,"15 mg/kg s.c., acute and chronic phases of sTBI",significantly decreased
same,ADO brain concentration,[1],71.67 ± 15.87 nmol/g (w.w.)
same,ADP brain concentration,[1],279.34 ± 29.59^b nmol/g (w.w.)
same,ADP-ribose brain concentration,[1],137.87 ± 43.18^a nmol/g (w.w.)
same,AMP brain concentration,[1],"53.61 ± 17.91^a, c, j nmol/g (w.w.)"
same,ATP brain concentration,[1],"1464.25 ± 99.09^a, h nmol/g (w.w.)"
same,CDP brain concentration,[1],"25.53 ± 6.83^a, c nmol/g (w.w.)"
same,CDP choline brain concentration,[1],"10.93 ± 3.22^b, h nmol/g (w.w.)"
same,CTP brain concentration,[1],"18.98 ± 6.58^a, g nmol/g (w.w.)"
same,CoA-SH brain concentration,[1],"21.61 ± 3.42^a, h nmol/g (w.w.)"
same,GDP brain concentration,[1],158.72 ± 24.57^a nmol/g (w.w.)
same,GDP glucose brain concentration,[1],38.71 ± 6.86 nmol/g (w.w.)
same,GMP brain concentration,[1],"177.00 ± 32.39^a, g nmol/g (w.w.)"
same,GSH brain concentration,[1],"2649.50 ± 397.31^a, d nmol/g (w.w.)"
same,GSSG brain concentration,[1],185.21 ± 48.10 nmol/g (w.w.)
same,GTP brain concentration,[1],"255.29 ± 45.21^a, g nmol/g (w.w.)"
same,IMP brain concentration,[1],"67.71 ± 10.63^g, i nmol/g (w.w.)"
same,MDA brain concentration,[1],"12.47 ± 2.09^a, c, g nmol/g (w.w.)"
same,NAA brain concentration,[1],6147.91 ± 989.12^a nmol/g (w.w.)
same,NADH brain concentration,[1],"15.49 ± 2.05^c, j nmol/g (w.w.)"
same,NADPH brain concentration,[1],6.22 ± 1.73 nmol/g (w.w.)
same,NADP^+ brain concentration,[1],17.95 ± 3.28^a nmol/g (w.w.)
same,NAD^+ brain concentration,[1],"404.63 ± 51.10^a, c, i nmol/g (w.w.)"
same,NO2 brain concentration,[1],216.03 ± 41.74^a nmol/g (w.w.)
same,NO3 brain concentration,[1],210.64 ± 91.95^d nmol/g (w.w.)
same,UDP brain concentration,[1],"61.83 ± 10.23^a, g nmol/g (w.w.)"
same,UDP-Gal brain concentration,[1],119.45 ± 12.50 nmol/g (w.w.)
same,UDP-GalNac brain concentration,[1],19.17 ± 4.01^a nmol/g (w.w.)
same,UDP-Glc brain concentration,[1],32.14 ± 4.59^g nmol/g (w.w.)
same,UDP-GlcNac brain concentration,[1],"95.85 ± 19.73^h, i nmol/g (w.w.)"
same,UMP brain concentration,[1],107.80 ± 21.62 nmol/g (w.w.)
same,UTP brain concentration,[1],123.46 ± 15.42^d nmol/g (w.w.)
same,acetyl-CoA brain concentration,[1],"21.56 ± 6.22^a, g, i nmol/g (w.w.)"
same,adenine brain concentration,[1],"44.82 ± 6.31^a, d, g nmol/g (w.w.)"
same,ascorbic acid brain concentration,[1],"3733.10 ± 277.88^a, d nmol/g (w.w.)"
same,creatinine brain concentration,[1],"24.55 ± 3.20^b, g, i nmol/g (w.w.)"
same,cytidine brain concentration,[1],15.40 ± 3.04 nmol/g (w.w.)
same,cytosine brain concentration,[1],"17.69 ± 2.50^b, d nmol/g (w.w.)"
same,guanine brain concentration,[1],4.80 ± 1.24^b nmol/g (w.w.)
same,guanosine brain concentration,[1],20.71 ± 5.66 nmol/g (w.w.)
same,hypoxanthine brain concentration,[1],14.47 ± 2.87^a nmol/g (w.w.)
same,inosine brain concentration,[1],92.55 ± 31.20^c nmol/g (w.w.)
same,malonyl-CoA brain concentration,[1],12.33 ± 1.82^b nmol/g (w.w.)
same,orotic acid brain concentration,[1],"8.80 ± 2.45^b, h, j nmol/g (w.w.)"
same,thymidine brain concentration,[1],0.69 ± 0.11 nmol/g (w.w.)
same,uracil brain concentration,[1],14.56 ± 5.44 nmol/g (w.w.)
same,uric acid brain concentration,[1],"23.62 ± 3.77^a, d, h nmol/g (w.w.)"
same,uridine brain concentration,[1],"76.35 ± 12.85^a, c nmol/g (w.w.)"
same,xanthine brain concentration,[1],9.46 ± 2.34^d nmol/g (w.w.)
same,β-pseudouridine brain concentration,[1],"6.65 ± 1.309^g, i nmol/g (w.w.)"
same,ADO brain concentration,[2],82.11 ± 16.51^a nmol/g (w.w.)
same,ADP brain concentration,[2],"264.07 ± 28.29^b, e, j nmol/g (w.w.)"
same,ADP-ribose brain concentration,[2],"141.96 ± 23.56^a, e, j nmol/g (w.w.)"
same,AMP brain concentration,[2],"57.70 ± 23.01^a, e, j nmol/g (w.w.)"
same,ATP brain concentration,[2],"1632.23 ± 90.07^a, e, j nmol/g (w.w.)"
same,CDP brain concentration,[2],24.29 ± 6.76^a nmol/g (w.w.)
same,CDP choline brain concentration,[2],6.91 ± 1.86 nmol/g (w.w.)
same,CMP brain concentration,[2],"15.68 ± 2.12^f, j nmol/g (w.w.)"
same,CTP brain concentration,[2],"32.63 ± 3.99^e, i nmol/g (w.w.)"
same,CoA-SH brain concentration,[2],30.57 ± 6.02^f nmol/g (w.w.)
same,GDP brain concentration,[2],"126.70 ± 31.35^a, j nmol/g (w.w.)"
same,GDP glucose brain concentration,[2],49.25 ± 10.33^a nmol/g (w.w.)
same,GMP brain concentration,[2],"91.47 ± 12.35^e, i nmol/g (w.w.)"
same,GSH brain concentration,[2],"2821.50 ± 242.82^a, e nmol/g (w.w.)"
same,GSSG brain concentration,[2],219.54 ± 53.36 nmol/g (w.w.)
same,GTP brain concentration,[2],"336.65 ± 35.18^a, e, j nmol/g (w.w.)"
same,IMP brain concentration,[2],102.63 ± 22.09^a nmol/g (w.w.)
same,MDA brain concentration,[2],"4.82 ± 1.73^a, e, i nmol/g (w.w.)"
same,NAA brain concentration,[2],"7262.84 ± 749.73^a, e nmol/g (w.w.)"
same,NADH brain concentration,[2],13.12 ± 4.19^e nmol/g (w.w.)
same,NADPH brain concentration,[2],7.05 ± 2.21 nmol/g (w.w.)
same,NADP^+ brain concentration,[2],"21.27 ± 4.19^b, e, j nmol/g (w.w.)"
same,NAD^+ brain concentration,[2],"401.18 ± 34.53^a, e, i nmol/g (w.w.)"
